Read-outs that look alike come from different tables or passages of the source.

For data set [1] the following is noted: cited from earlier work.
Data set [2] in a line: In situ-in vivo nasal study: dosing in one nostril and washing out from the other. Also noted: species or system rats. The conditions noted are these: after 15 minutes of dosing in one nostril.
Data set [3] in a line: Pharmacokinetics of arecoline in rats after intranasal and intramuscular administration. The conditions noted are these: for Tmax / half-life / AUC / Cmax: male, Lewis, rat, plasma; for AUC / Cmax: n=3 rats. The class given is in vivo, Male Lewis rats. The method, then:
(§1) The blood samples were collected into heparinized test tubes. […] Plasma was separated immediately and stored frozen.
The analytical method of arecoline in plasma was performed by gas-chromatography-mass spectrometry (GC-MS) after solvent extraction using a method similar to that described in Beil, et al., Drug Develop Res, 9, 203-212 (1986). Nicotine was used as an internal standard. In this method, 50µl of nicotine solution in chloroform (1.5 µg/ml and 50 µl of 10% triethylamine in chloroform were added to 0.5 ml cold plasma in a 5 ml test tube with a screw cap. The tubes were vortexed for 1 minute and centrifuged for 10-15 minutes. The organic layer was then removed, placed in a micro vial and sealed with perfluoroethylene tape such as Teflon®, until analysis.
GC-MS analysis was performed using an HP-1 column, (crosslinked methyl silicon, 12 m x […] x 0.33 µm film thickness). Two µl aliquots were injected onto the column in a splitless mode. Helium was used as a carrier gas. Detection was accomplished using a gas chromatograph electron impact mass selective detector set at m/z=155 and 162. The limit of arecoline detection was 15 ng/ml.

Data set [4] concerns patients having Alzheimer presenile dementia. The conditions noted are these: cited from earlier work.
The test system of the next data set is rats. Kind of data set: Survival of rats after arecoline administration by different routes. The class given is in vivo. Here is the method:
as §1
Plasma arecoline concentrations were determined after nasal and i.m. administration of the compound. After intranasal administration, arecoline was absorbed very rapidly (tmax= 3 +/- 1.6 min), faster than after i.m. administration (tmax=13.3 +/- 6.2 min). […] It is not known why absorption after i.m. was slower. […] Bolus i.v. studies were also performed, but the rats died. […]

For a further data set, the system named is normal human subjects. The conditions noted are these: cited from earlier work.
Data set [5] in a line: Pharmacokinetics of physostigmine in rats after intravenous and intranasal administration. Here is the method: Male Lewis rats, each weighing approximately 300 grams were anesthesized with pentobarbital (50 mg/kg i.p.). The jugular vein was cannulated and attached to a syringe through a three way stopcock for blood collections. For nasal administration of physostigmine and arecoline, an incision was made in the neck of the animals and the trachea was cannulated with a polyethylene (PE) tube. A closed tube was inserted through the esophagus to the posterior part of the nasal cavity. The nasopalatine passage was closed with an adhesive agent to prevent drainage of the drug from the nasal cavity to the mouth. An aqueous solution of physostigmine hemi-sulfate (obtained from Sigma Chemical, St. Louis, Mo.) dose equivalent to 200 µg/kg of physostigmine base in a volume of 150 µl/kg was administered to the nasal cavity by means of a Hamilton syringe with PE tubing attached to the end. For arecoline hydrobromide (obtained from Sigma Chemical, St. Louis, MO.), an aqueous solution with a dose of 2 mg/kg was administered in a volume of 150 µl/kg. Blood samples (1 ml) were withdrawn through the jugular cannula and replaced with equal volume of fresh blood after each sampling as a function of time. For intravenous administration of physostigmine the same dose as nasal (200 µg/kg) in a volume of 1 ml/kg was injected through the femoral vein. For intramuscular arecoline hydrobromide, the dose was 1 mg/kg in a volume of 1 ml/kg injected into the biceps femoris. The blood samples were collected into heparinized test tubes. In the case of physostigmine the tubes also contained 50 µl of a 100 µg/ml neostigmine bromide (as a stabilizer for physostigmine). Plasma was separated immediately and stored frozen.
The analytical method for physostigmine in plasma was a modification of that described in Brodie, et al., J. Chromatogr. 415, 423-431 (1987). Plasma samples (0.5 ml) were pipetted into extraction tubes, and 0.2 ml of an aqueous solution of 3,3-bis(4- pyridylmethyl)-1-phenyl indolin-2-one as an internal standard (1.5 µg/ml), 2 ml of ethylacetate and 0.2 ml of a 3.5% sodium carbonate solution were added. The tubes were shaken mechanically for 0.5 minute and centrifuged for 5 minutes. The organic layer was then transferred to 12 X 75 mm tubes, evaporated to dryness under a steam of nitrogen, and the residue was reconstituted in 0.2 ml acetonitrile. After mechanical shaking (2 minutes), aliquots (125 µl) were analyzed by High Performance Liquid Chromatography (HPLC) using a dual detection system, where detection of physostigmine was by a fluorimetric detector and detection of the internal standard was by an ultraviolet (u.v.) detector.
Separation was achieved on a 25 cm x 4.6 mm reverse phase (Zorbax® C₈, Du Pont) column attached to a guard column with C₈ packing at ambient temperature The mobile phase contained 0.2 M ammonium acetate-acetonitrile (2:3), adjusted to pH 8.2-8.3 with triethylamine and was delivered at a flow rate of 1.5 ml/min. Detection of physostigmine was by fluorimetric detector (Spectroflow 980 Programmable Fluorescence Detector, Kratos) operated at excitation and emission wavelengths of 254 and 320 nm, respectively. Detection of the internal standard was by u.v. detector (Lambda-Max Model 481 LC Spectrophotometer, Waters instrument) set at 254 nm. […] The other components of the HPLC system were a Waters 590 Programmable HPLC pump, an autosampler (Waters WISP 710B) and a recording integrator (Hewlett-Packard Model 3393A).

The mark [6] stands for this setting: im, 1 mg/kg, after i.m. administration.
Setting [7] is: im, Intramuscular, 1 mg/kg Arecoline HBr.
Setting [8] is: inhaled or intranasal, 2 mg/kg, after intranasal administration.
The mark [9] stands for this setting: inhaled or intranasal, Intranasal, 2 mg/kg Arecoline HBr.
[10] abbreviates: male, Lewis, rat, plasma, inhaled or intranasal, 200 ug/kg.

As for `COC(=O)C1=CCCN(C)C1` [arecoline], the “bioavailability upon oral administration” value in data set [1] was “not bioavailable”. The “residual arecoline in the nose” value in data set [2] was “no residual arecoline”. Further, the Tmax in data set [3] (im, 1 mg/kg, Intramuscular, 1 mg/kg Arecoline HBr, n=3 rats (Table 2)) was 5.43 min; in data set [3] (setting [6]) it was 13.3 min; in data set [3] (inhaled or intranasal, 2 mg/kg, Intranasal, 2 mg/kg Arecoline HBr, n=3 rats (Table 2)), 3 min; in data set [3] (setting [8]), 3 min. The half-life came to 5.4 ± 1.1 min in data set [3] (setting [6]) and 2 ± 0.6 min in data set [3] (setting [8]). Besides, the AUC is 77.7 ng·h/mL in data set [3] (setting [7]) and 141 ng·h/mL in data set [3] (setting [9]). In addition, the Cmax in data set [3] (setting [7]) was 249 ± 22 ng/mL; in data set [3] (setting [9]), 1750 ± 523 ng/mL. For the same molecule, the Bioavilability in data set [3] (ratio of AUC (nasal/intramuscular) X 100) turned out to be 85%. Further, the picture recognition tests result in data set [4] (2 mg doses) is “trend toward improvement”; in data set [4] (intravenous administration of 4 mg) it was “improvement”. Also, the death of rats result in the data set on rats (bolus i.v.) is “the rats died”; in the data set on rats (i.m. administration), “None of the rats died”; in the data set with rats (intranasal administration), “None of the rats died”. In the data set on normal human subjects, the serial learning entry is reported as “significantly enhanced”.

For `CNC(=O)Oc1ccc2c(c1)[C@]1(C)CCN(C)[C@@H]1N2C` [physostigmine], the picture recognition tests result in data set [4] (0.25 mg and 0.75 mg doses) was “trend toward improvement”. Moreover, the picture recognition tests result in data set [4] (intravenous administration of 0.375 mg) is on record as “improvement”. In addition, the Tmax in data set [5] (Nasal, 200 µg/kg, n = 7 rats (Table 1)) is 6.5 ± 1.7 min. Besides, in data set [5] (setting [10]), the AUC is 38.9 ng·h/mL, the highest level (Cmax) was 86 ± 5 ng/mL, the Tmax is 6.5 min and the half-life was 36 ± 16 min. In data set [5] (male, Lewis, rat, plasma, iv, 200 ug/kg), the AUC is 40.2 ng·h/mL. In data set [5] (male, Lewis, rat, plasma, iv, 200 µg/kg), the bioavailability amounted to 97%.

By Tmax is commonly meant the time from dosing to the highest level. What is called half-life is how long it takes for the measured level to halve. The AUC is concentration integrated over time. The low end stands for less exposure, the high end for more exposure. One may read the Cmax as the highest concentration seen after dosing. As usually defined, the bioavailability is dose-corrected exposure relative to a reference, in per cent.

The values above are taken from patent EP0389975A1, “Intranasal administration of physostigmine and arecoline” (priority 1989, dated 1990).
